The nature of experiment [1]: blockers of dynein-driven microtubule transport – imaging, high-content imaging, dose response (AID 463136).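 Also: mouse mammary adenocarcinoma 3617.4 cells expressing GFP-tagged rat glucocorticoid receptor.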 The following applies: HCS imaging, dynein-mediated cargo transport inhibition; inhibition at max concentration; at 50 µM; stronger effect = higher value.
The subject of experiment [2] is HCS imaging, dynein-mediated cargo transport inhibition. The description is as above.

Inconclusive results are not listed. Activity calls are given as the source filed them. No rule for the calls is given here.

A word on the inhibition: it is the relative decrease from the control value, in per cent. One may read the IC50 as the concentration that gives 50% inhibition. As to `COC(=O)c1cc(NC(=O)c2cccc(Cl)c2)c(=O)oc1/C=C/Nc1cc(C)cc(C)c1`, the inhibition in experiment [1] turned out to be 76.3%. Moreover, the half-maximal inhibitory concentration (IC50) in experiment [2] was 2.54 µM.
With `COc1ccc(N=C2S/C(=C\c3ccc(N4CCOCC4)o3)C(=O)N2CCc2c[nH]c3ccccc23)cc1`, in experiment [1], the inhibition amounted to 127%. In addition, the IC50 in experiment [2] was 27.1 µM.
On the same counts, the results for `O=c1c(Cl)c(Cl)cnn1Cc1nnc(-c2ccc(Cl)cc2)o1` are 69.6% and 22.9 µM.
The corresponding values for `CN1CCN(S(=O)(=O)c2ccc(Sc3nnnn3-c3ccccc3)c([N+](=O)[O-])c2)CC1` are 75.4% and 17.5 µM.
The corresponding values for `CC(=O)N(C1CC(C)C(C#N)(C#N)C1(C#N)C#N)N(C)C` (centres undefined) are 5.79% and > 50 µM (inactive).
Take `CCOC(=O)c1c(NC(=S)N2CCCCC2)sc2c1CCN(C(=O)OCC)C2`: the inhibition in experiment [1] stood at 30.3%. The IC50 in experiment [2] is > 50 µM (inactive).
On the same counts, the results for `Cc1cccc(N2C(=O)NC(=O)/C(=C\C=C\c3ccco3)C2=O)c1` are 89.4% and 33.4 µM.
On the same counts, the results for `O=C(NCc1cccnc1)/C(=C/c1ccc(-c2ccc(Cl)cc2)o1)S(=O)(=O)c1ccccc1` are 59.1% and 34.3 µM.
On the same counts, the results for `CC[n+]1c(/C=C/C=C/N(C(C)=O)c2ccccc2)sc2cc(OC)ccc21` are 93.8% and 6.65 µM.
With `Clc1ccc(-c2csc3ncnc(Cl)c23)cc1`, in experiment [1], the inhibition amounted to 72.9%. Moreover, the IC50 in experiment [2] was 40.5 µM.
Turning to `COC(=O)c1cc(=O)n(Cc2ccco2)c(=Nc2ccc(F)c(Cl)c2)s1`, the inhibition in experiment [1] came to 31.4%. The IC50 in experiment [2] was > 50 µM (inactive).
On the same counts, the results for `O=C(OCn1ncc(Br)c(Br)c1=O)c1c(F)cccc1F` are 81.6% and 18.5 µM.
The corresponding values for `CCOC(=O)COc1ccc(/C=C/[N+](=O)[O-])c(OCC(=O)OCC)c1` are 82.8% and 11.4 µM.
The corresponding values for `N/C(=C\C(=O)c1cc(Cl)ccc1O)C(Cl)(Cl)Cl` are 76.1% and 33 µM.
For the compound `CCC(=O)Nc1ccc(C(=O)Cn2ncc(Cl)c(Cl)c2=O)cc1`, the inhibition in experiment [1] was 72.4%. The IC50 in experiment [2] is 15.7 µM.
On the same counts, the results for `CCOC(=O)CC1C(=O)NCCN1c1nc2ccc(C)cn2c(=O)c1/C=C1\SC(=S)N(CC(C)C)C1=O` (centres undefined) are 71.8% and 44.9 µM.
For the compound `Nc1c(C(=O)N/N=C/c2ccc(F)cc2)oc2nc(-c3ccccc3)cc(-c3ccco3)c12`, in experiment [1], the inhibition was found to be 40.9%. The IC50 in experiment [2] was > 50 µM (inactive).
The corresponding values for `O=C(/C=C/c1ccccc1Cl)c1cccnc1` are 85.3% and 17.2 µM.
The corresponding values for `Cc1cccc2cc3c(N)c(C(=O)N4CCCc5ccccc54)sc3nc12` are 116% and 35.2 µM.
Consider `CC(C)CC(=O)/C=C/n1c(=S)oc2ccccc21`, for which the inhibition in experiment [1] was 24.5%. In addition, in experiment [2], the IC50 is > 50 µM (inactive).
The corresponding values for `O=C1c2ccccc2-c2onc3ccc(NCc4ccco4)c1c23` are 87.2% and 41.4 µM.
On the same counts, the results for `Cc1ccc(-n2nnnc2CCl)cc1` are 80% and 12.2 µM.
On the same counts, the results for `N#CC(C#N)=C1C=C2C=C(N3CCCCC3)CCC2CC1` (centres undefined) are 99.5% and 35.8 µM.
For the compound `N#CC(C#N)=C1C=CC=CN1/C(=C\c1ccco1)C(=O)c1ccc(Br)cc1`, the inhibition in experiment [1] came to 33.6%. Moreover, the IC50 in experiment [2] was > 50 µM (inactive).
The corresponding values for `O=C(OCn1ncc(Br)c(Br)c1=O)c1ccc(F)cc1` are 55% and 7.52 µM.
The corresponding values for `COc1cccc(-n2nc(C#N)c(Cl)cc2=O)c1` are 48.5% and 11.2 µM.
On the same counts, the results for `O=C(NCc1cccnc1)/C(=C/c1ccc(-c2cccc(Cl)c2)o1)S(=O)(=O)c1ccccc1` are 42% and > 50 µM (inactive).
With `Cc1nc([N+](=O)[O-])c(Br)n1CC(=O)c1ccc2ccccc2c1`, the inhibition in experiment [1] was 81.3%. Further, the IC50 in experiment [2] is 5.15 µM.
The corresponding values for `O=[N+]([O-])/C=C/c1cn(Cc2ccc(F)cc2)c2ccccc12` are 14% and > 50 µM (inactive).
The corresponding values for `CCOc1ccccc1N1C(=O)CC(Sc2n[nH]c(-c3ccccc3)n2)C1=O` (centres undefined) are 13.5% and > 50 µM (inactive).
Turning to `COc1ccc(OC)c(CCNC(=O)Cn2sc3nc(C)cc(C)c3c2=O)c1`, the inhibition in experiment [1] was 93.6%. For the same compound, the half-inhibitory concentration (IC50) in experiment [2] is 29.1 µM.
The corresponding values for `O=S(=O)(c1ccccc1)c1ncc(C(F)(F)F)cc1Cl` are 79.3% and 8.14 µM.
On the same counts, the results for `CC(C)(C)c1cnnn1-c1ccc(C(=O)CCl)cc1` are 67.1% and 6.44 µM.
As to `COC(=O)c1cc(=O)n(Cc2ccc(OC)c(OC)c2)c(=Nc2ccc(F)cc2)s1`, the inhibition in experiment [1] amounted to 74.3%. Besides, the IC50 in experiment [2] is 24.6 µM.
The corresponding values for `CC(=O)Nc1sc(/C(C#N)=C/c2ccc(Cl)c(Cl)c2)nc1-c1ccc(C)cc1` are 102% and 0.491 µM.
The corresponding values for `CC(=O)OCCN(C)c1cc(SC(C)C)c2nonc2c1[N+](=O)[O-]` are 68.1% and 35.5 µM.
As to `COc1cccc(C2CC3C(=O)C=CC2N3Cc2ccccc2)c1` (centres undefined), the inhibition in experiment [1] turned out to be 90%. Further, the IC50 in experiment [2] was 13.3 µM.
The corresponding values for `O=C(NCc1cccnc1)/C(=C\c1ccc(-c2ccc(Br)cc2)o1)S(=O)(=O)c1ccccc1` are 55.1% and 39.4 µM.
As to `COC(=O)c1cc(NC(=O)c2ccccc2)c(=O)oc1/C=C/Nc1ccc(Oc2ccccc2)cc1`, in experiment [1], the inhibition stood at 102%. In addition, the IC50 in experiment [2] is 1.16 µM.
On the same counts, the results for `CCOC(=O)CC1C(=O)NCCN1c1nc2ccc(C)cn2c(=O)c1/C=C1\SC(=S)N(C(C)CC)C1=O` (centres undefined) are 80.8% and 27.3 µM.
On the same counts, the results for `CCOC(=O)c1c2ccc(OCC(=O)N/N=C/c3ccc(Cl)cc3)cc2n2ccccc12` are 27.4% and > 50 µM (inactive).
Regarding `CCOc1ccc(-n2c(C)cc(C(=O)CCl)c2C)cc1`, the inhibition in experiment [1] worked out at 82.2%. Besides, the IC50 in experiment [2] was 24.9 µM.
As for `O=C(Cn1ncc(Cl)c(Cl)c1=O)N1CCN(Cc2ccccc2)CC1`, the inhibition in experiment [1] was 62.9%. Besides, the IC50 in experiment [2] is 5.63 µM.
The corresponding values for `CCCCNc1c2c3c(cccc3n(C)c1=O)C(=O)c1ccccc1-2` are 12% and > 50 µM (inactive).
In the case of `COc1ccc(C(=O)/C=C/C(=O)N(CC(=O)NCCC(C)C)Cc2cccs2)c(O)c1`, the inhibition in experiment [1] worked out at 45.7%. In addition, in experiment [2], the IC50 was > 50 µM (inactive).
The corresponding values for `C[C@@H]1C[C@@H]2O[C@H]2/C=C\C=C\C(=O)Cc2c(Cl)c(O)cc(O)c2C(=O)O1` are 49.4% and 0.281 µM.
For the compound `Clc1ncnc2scc(-c3ccc(Br)cc3)c12`, in experiment [1], the inhibition stood at 85.1%. In addition, in experiment [2], the IC50 was 19.9 µM.
The corresponding values for `N#CC(C#N)=C1C=C2C=C(N3CCOCC3)CCC2CC1` (centres undefined) are 99% and 42.8 µM.
The corresponding values for `CCCCN(C)C1=CC2=CC(=C(C#N)C#N)CCC2CC1` (centres undefined) are 99.2% and 13.6 µM.
The corresponding values for `CC(C)c1ccc(CN2CCN(C(=O)CCl)CC2)cc1` are 89.6% and 7.94 µM.
Turning to `CCc1ccc(N2C(=O)NC(=O)/C(=C\C=C\c3ccco3)C2=O)cc1`, the inhibition in experiment [1] was 165%. The IC50 in experiment [2] is 27.5 µM.
The corresponding values for `CCN(CC)c1ccc(/C=C/C(=O)c2ccc(Br)cc2)cc1` are 7.65% and > 50 µM (inactive).
On the same counts, the results for `N#C/C(=C/c1ccc(N2CCCCC2)o1)C(=O)Nc1ccc(Cl)cc1` are 97.4% and 40.4 µM.
On the same counts, the results for `Cn1cc(Br)c(NC(=O)/C=C/C(=O)O)n1` are 6.1% and > 50 µM (inactive).
`Cc1cc2oc(=O)cc(Cn3ncc(Cl)c(Cl)c3=O)c2cc1Cl`: the inhibition in experiment [1] is 65.7%. Further, the IC50 in experiment [2] was 20.1 µM.
On the same counts, the results for `O=C(NCc1cccnc1)/C(=C\c1ccc(-c2ccc(Cl)c(Cl)c2)o1)S(=O)(=O)c1ccccc1` are 9.8% and > 50 µM (inactive).
On to `CCCn1nc([N+](=O)[O-])c(C(C#N)c2nc3ccccc3s2)c(Cl)c1=O` (centres undefined), for which the inhibition in experiment [1] turned out to be 97%. The IC50 in experiment [2] was 14.6 µM.
On the same counts, the results for `CCNc1ccc(Br)cc(C(=O)/C=C/c2ccc(Cl)cc2Cl)c1=O` are 99.2% and 32.9 µM.
For the compound `Cc1cc(C)c(S(=O)(=O)ON2C(=O)c3ccccc3C2=O)cc1C`, the inhibition in experiment [1] is 10.5%. In experiment [2], the IC50 was > 50 µM (inactive).
The corresponding values for `O=C(/C(=C/c1ccc(Cl)cc1)c1nc2ccccc2[nH]1)c1ccccc1` are 21.4% and > 50 µM (inactive).
As for `O=C(CCl)N(CCCNC(=O)C(F)(F)F)c1ccc([N+](=O)[O-])cc1`, in experiment [1], the inhibition amounted to 83.1%. Further, in experiment [2], the IC50 was 10.8 µM.
As to `C#CC(=O)N(c1ccc(OC)c(OC)c1)C(C(=O)NC1CCCC1)c1cccs1` (centres undefined), the inhibition in experiment [1] is 40.2%. Besides, the IC50 in experiment [2] was > 50 µM (inactive).
The corresponding values for `O=c1cc(-c2c(F)c(F)c(F)c(F)c2F)oc2c(F)c(F)c(F)c(F)c12` are 92% and 27.7 µM.
The corresponding values for `Cc1ccc(SC(=O)c2c([N+](=O)[O-])c(C)nn2C)cc1` are 6.09% and > 50 µM (inactive).
For `Cc1nc([N+](=O)[O-])c(Br)n1CC(=O)c1ccc(F)cc1`, in experiment [1], the inhibition was determined as 92.2%. Also, the IC50 in experiment [2] is 3.25 µM.
Turning to `CNCc1ccccc1Sc1cc(O)ccc1O`, in experiment [1], the inhibition was found to be 74.1%. Also, in experiment [2], the IC50 was 38.5 µM.
Take `Cc1ccc(CN=Cc2[nH]c3ccc(Br)c(Cl)c3c2O)cc1`: in experiment [1], the inhibition was determined as 99.2%. In experiment [2], the IC50 was 5.14 µM.

For the origin of these results see PubChem BioAssay AID463136 (University of Pittsburgh Molecular Library Screening Center, 2010).
